# Values quoted from earlier work, collected in patent publication US12263152B2, “Method of preventing and treating chemotherapy-induced alopecia” (JJR&D, LLC, priority 2022, dated 2025).
# Like-named read-outs stand apart in the source and are kept apart here.
# What was measured:
# CIA [1] = conditions: neonatal rat model
# CIA [2] = conditions: studies on humans
# [3] = test system: most commonly used alopecic chemotherapies; conditions: topical pretreatment, rats
# [4] = test system: cyclophosphamide-induced alopecia; conditions: animal studies
compound,measurement,setting,value
Cl[TeH]1(Cl)(Cl)OCCO1 [AS101],Protective role against CIA,CIA [1],protective role
same,Protective role against CIA,CIA [2],protective role
"C=C1/C(=C\C=C2/CCC[C@]3(C)[C@@H]([C@H](C)CCCC(C)(C)O)CC[C@@H]23)C[C@@H](O)C[C@@H]1O [Calcitriol, 1,25-(OH)2D3]",Patients with alopecia of <50% from baseline,"alopecia; Week 7, of 23 female patients, topical 5-80 μg/mL twice daily",8 patients
same,Patients with <50% alopecia maintained,"alopecia; Week 15, of 23 female patients, topical 5-80 μg/mL twice daily",2 patients
same,Maximum tolerated dose,"alopecia; topical drug product, dose escalation up to 80 μg/mL twice daily",not reached
same,Protection from the most commonly used alopecic chemotherapies,[3],protected
epidermal growth factor,Protection from cyclophosphamide (CTX)-induced alopecia,[4],lack of protection
recombinant interleukin 1 β: recombinant interleukin 1 β,Protection from cyclophosphamide (CTX)-induced alopecia,[4],lack of protection
